In patent US20120270237A9, “METHODS FOR THE IDENTIFICATION OF KINASE INTERACTING MOLECULES AND FOR THE PURIFICATION OF KINASE PROTEINS” (Cellzone AG, priority 2009, published 2012):

Legend:
Experiment in all cases: Kinobeads competition binding, HL60 cell lysate
Parameters in all cases: endogenous in cells
Details in all cases: 10 μM free compound
MST1 = target: T1, MST1 (Homo sapiens, UniProt Q13043)
T1 sequence (Q13043 1-487): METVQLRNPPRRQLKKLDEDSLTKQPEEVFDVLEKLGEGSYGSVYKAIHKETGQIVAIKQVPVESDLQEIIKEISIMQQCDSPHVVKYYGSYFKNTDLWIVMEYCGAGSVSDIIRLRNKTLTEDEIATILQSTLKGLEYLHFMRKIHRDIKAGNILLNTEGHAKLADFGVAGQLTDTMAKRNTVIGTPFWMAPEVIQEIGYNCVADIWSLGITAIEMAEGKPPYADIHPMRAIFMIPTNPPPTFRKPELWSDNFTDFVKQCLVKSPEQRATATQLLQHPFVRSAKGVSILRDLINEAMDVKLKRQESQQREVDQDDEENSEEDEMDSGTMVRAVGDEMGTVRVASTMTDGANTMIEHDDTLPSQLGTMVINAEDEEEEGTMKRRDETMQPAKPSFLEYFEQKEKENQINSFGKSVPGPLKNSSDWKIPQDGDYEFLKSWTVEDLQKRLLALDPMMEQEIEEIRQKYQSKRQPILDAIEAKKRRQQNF
Procedure, shortened: (§1)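 Relative binding comes from iTRAQ reporter signals after Kinobeads-style pull-down from HL60 lysate in the presence of 10 μM free compound versus solvent.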

FES = FES (Homo sapiens, UniProt P07332)
Procedure, shortened: as §1

PLK1 = PLK1 (Homo sapiens, UniProt P53350)
Procedure, shortened: as §1

JNK1 = JNK1 (Homo sapiens, UniProt P45983)
Procedure, shortened: as §1

AAK1 = AAK1 (Homo sapiens, UniProt Q2M2I8)
Procedure, shortened: as §1

PLK4 = PLK4 (Homo sapiens, UniProt O00444)
Procedure, shortened: as §1

MAP3K4 = MAP3K4 (Homo sapiens, UniProt Q9Y6R4)
Procedure, shortened: as §1

RSK2 = RSK2 (Homo sapiens, UniProt P51812)
Procedure, shortened: as §1

AurB = AurB (Homo sapiens, UniProt Q96GD4)
Procedure, shortened: as §1

BTK = BTK (Homo sapiens, UniProt Q06187)
Procedure, shortened: as §1

MAP3K1 = MAP3K1 (Homo sapiens, UniProt Q13233)
Procedure, shortened: as §1

MARK3 = MARK3 (Homo sapiens, UniProt P27448)
Procedure, shortened: as §1

PKN2 = PKN2 (Homo sapiens, UniProt Q16513)
Procedure, shortened: as §1

YES = YES (Homo sapiens, UniProt P07947)
Procedure, shortened: as §1

FES, sequence (P07332 whole entry): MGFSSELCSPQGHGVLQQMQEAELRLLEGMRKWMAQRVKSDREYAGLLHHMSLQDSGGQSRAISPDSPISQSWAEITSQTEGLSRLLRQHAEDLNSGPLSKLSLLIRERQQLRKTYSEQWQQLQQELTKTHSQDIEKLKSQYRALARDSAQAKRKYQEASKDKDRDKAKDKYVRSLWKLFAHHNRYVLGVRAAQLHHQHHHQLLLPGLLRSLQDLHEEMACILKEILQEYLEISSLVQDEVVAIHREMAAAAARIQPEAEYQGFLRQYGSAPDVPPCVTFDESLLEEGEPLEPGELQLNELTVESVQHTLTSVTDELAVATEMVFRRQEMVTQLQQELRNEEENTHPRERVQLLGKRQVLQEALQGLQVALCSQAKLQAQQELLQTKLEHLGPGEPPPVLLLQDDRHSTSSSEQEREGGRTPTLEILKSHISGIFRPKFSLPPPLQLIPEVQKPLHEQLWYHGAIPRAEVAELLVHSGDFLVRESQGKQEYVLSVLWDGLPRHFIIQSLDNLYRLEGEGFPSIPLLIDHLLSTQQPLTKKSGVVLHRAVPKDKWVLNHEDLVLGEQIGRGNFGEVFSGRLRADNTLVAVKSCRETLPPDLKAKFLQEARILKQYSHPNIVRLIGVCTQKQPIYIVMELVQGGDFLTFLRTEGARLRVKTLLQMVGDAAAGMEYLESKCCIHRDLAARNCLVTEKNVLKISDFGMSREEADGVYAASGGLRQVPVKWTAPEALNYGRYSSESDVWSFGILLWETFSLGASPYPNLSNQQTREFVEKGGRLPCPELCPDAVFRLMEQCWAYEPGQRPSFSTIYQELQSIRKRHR
MAP3K1, sequence (Q13233 whole entry): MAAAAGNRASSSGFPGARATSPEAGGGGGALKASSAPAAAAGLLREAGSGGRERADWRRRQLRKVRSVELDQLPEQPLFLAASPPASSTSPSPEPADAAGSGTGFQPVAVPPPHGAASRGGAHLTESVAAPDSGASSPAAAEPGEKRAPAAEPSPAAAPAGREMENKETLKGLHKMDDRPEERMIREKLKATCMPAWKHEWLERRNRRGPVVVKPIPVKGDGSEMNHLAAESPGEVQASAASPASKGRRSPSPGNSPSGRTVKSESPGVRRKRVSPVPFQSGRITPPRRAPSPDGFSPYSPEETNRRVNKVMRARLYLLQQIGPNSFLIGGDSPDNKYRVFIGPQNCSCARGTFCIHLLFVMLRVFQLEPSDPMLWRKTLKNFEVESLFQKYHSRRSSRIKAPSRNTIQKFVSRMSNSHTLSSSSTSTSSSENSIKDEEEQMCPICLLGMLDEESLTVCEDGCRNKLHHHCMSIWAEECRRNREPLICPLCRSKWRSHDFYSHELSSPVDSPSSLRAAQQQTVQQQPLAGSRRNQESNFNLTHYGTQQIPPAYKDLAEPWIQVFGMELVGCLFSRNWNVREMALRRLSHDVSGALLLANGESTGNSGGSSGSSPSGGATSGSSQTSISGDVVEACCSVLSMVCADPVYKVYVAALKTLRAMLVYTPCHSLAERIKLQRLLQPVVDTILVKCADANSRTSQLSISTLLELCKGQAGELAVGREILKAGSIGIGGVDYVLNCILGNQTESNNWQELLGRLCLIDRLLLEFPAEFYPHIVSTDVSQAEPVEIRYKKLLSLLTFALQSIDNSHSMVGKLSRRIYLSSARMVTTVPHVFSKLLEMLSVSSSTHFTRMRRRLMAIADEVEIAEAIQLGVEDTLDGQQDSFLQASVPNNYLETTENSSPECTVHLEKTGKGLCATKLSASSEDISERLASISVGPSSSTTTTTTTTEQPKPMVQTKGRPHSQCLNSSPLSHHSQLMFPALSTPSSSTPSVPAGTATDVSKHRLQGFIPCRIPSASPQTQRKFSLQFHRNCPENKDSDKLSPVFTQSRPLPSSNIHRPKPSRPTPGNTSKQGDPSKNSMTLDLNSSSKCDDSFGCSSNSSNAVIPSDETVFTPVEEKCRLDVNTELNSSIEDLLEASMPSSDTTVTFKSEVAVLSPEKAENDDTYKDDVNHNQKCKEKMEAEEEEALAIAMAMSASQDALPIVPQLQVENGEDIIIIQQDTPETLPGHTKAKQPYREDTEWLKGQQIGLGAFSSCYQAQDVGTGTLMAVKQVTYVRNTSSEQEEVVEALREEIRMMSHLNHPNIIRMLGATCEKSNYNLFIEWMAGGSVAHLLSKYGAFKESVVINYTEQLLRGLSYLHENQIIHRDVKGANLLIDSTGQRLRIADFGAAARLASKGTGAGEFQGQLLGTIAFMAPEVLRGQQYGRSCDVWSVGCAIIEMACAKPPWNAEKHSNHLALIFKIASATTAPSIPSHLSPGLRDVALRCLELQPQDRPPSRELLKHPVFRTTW
MARK3, sequence (P27448 whole entry): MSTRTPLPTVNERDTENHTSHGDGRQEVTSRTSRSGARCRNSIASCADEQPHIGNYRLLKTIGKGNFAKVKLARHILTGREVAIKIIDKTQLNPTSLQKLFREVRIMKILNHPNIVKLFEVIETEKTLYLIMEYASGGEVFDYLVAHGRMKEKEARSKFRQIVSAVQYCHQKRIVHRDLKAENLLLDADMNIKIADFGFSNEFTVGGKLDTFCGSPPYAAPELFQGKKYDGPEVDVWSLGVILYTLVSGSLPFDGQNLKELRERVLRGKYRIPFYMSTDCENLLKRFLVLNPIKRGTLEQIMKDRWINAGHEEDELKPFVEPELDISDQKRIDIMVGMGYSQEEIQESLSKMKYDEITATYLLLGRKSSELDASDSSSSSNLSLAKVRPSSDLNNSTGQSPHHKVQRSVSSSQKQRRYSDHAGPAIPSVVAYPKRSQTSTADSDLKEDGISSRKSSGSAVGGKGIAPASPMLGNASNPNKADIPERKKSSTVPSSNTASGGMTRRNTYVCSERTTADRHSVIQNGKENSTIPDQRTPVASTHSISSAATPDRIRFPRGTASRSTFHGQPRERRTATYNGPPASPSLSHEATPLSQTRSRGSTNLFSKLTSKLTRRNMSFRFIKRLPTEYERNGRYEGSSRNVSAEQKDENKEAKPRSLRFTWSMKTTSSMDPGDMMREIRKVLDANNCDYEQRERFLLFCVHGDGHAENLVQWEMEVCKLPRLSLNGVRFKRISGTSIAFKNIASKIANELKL
PLK4, sequence (O00444 whole entry): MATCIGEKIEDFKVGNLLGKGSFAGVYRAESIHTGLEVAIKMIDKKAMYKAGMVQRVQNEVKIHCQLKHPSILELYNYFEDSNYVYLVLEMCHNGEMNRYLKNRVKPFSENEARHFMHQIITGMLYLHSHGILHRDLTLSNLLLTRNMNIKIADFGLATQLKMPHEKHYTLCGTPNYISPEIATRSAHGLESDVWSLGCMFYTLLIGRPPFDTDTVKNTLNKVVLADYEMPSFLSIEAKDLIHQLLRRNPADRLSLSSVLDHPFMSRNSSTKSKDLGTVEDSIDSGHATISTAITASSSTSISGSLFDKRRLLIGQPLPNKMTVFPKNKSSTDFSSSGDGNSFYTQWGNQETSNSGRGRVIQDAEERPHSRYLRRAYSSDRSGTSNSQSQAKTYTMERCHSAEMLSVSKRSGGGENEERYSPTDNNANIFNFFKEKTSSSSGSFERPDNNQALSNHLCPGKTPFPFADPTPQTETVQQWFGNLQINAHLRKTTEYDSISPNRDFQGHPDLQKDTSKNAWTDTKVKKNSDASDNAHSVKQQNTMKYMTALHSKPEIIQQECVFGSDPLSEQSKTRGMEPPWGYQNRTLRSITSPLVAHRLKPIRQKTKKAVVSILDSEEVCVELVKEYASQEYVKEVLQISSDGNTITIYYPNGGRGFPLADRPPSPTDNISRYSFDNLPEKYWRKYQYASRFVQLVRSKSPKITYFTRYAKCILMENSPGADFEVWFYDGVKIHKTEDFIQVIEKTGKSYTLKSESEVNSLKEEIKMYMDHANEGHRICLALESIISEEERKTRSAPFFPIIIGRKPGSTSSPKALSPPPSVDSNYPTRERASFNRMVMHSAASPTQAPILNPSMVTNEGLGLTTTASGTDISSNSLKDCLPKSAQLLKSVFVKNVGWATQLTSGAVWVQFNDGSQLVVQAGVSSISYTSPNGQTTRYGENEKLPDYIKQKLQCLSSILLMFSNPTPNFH
AurB, sequence (Q96GD4 whole entry): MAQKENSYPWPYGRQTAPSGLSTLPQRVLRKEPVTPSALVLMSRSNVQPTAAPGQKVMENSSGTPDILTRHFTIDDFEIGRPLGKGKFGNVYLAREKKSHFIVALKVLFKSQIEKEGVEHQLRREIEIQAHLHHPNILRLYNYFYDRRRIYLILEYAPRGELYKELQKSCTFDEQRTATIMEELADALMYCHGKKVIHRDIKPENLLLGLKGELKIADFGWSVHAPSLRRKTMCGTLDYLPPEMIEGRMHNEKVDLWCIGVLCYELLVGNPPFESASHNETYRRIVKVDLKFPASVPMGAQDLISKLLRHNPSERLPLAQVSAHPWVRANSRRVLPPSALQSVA
BTK, sequence (Q06187 whole entry): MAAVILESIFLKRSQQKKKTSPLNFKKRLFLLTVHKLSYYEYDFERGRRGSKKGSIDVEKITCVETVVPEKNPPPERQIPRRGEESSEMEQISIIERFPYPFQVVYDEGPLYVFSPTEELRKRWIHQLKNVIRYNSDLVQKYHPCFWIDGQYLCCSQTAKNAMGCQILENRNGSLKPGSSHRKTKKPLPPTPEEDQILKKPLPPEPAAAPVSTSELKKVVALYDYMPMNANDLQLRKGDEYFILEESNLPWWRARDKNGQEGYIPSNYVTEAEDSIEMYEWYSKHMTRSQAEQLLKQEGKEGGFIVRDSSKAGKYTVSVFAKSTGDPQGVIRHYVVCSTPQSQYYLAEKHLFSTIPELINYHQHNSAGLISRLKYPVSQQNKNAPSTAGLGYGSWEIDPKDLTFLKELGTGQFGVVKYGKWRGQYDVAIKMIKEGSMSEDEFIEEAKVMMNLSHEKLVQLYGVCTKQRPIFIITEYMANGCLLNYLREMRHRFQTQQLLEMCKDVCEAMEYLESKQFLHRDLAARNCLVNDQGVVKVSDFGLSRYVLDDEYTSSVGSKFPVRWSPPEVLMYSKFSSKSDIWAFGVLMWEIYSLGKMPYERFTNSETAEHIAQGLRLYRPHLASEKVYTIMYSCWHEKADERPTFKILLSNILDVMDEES

- Competition % (MST1): 97.7%
- inhibition at 10 µM (FES): 96.3%
- inhibition at 10 µM (PLK1): 97.8%
- Competition % (JNK1): 88.8%
- inhibition at 10 µM (AAK1): 97.8%
- inhibition at 10 µM (PLK4): 91.7%
- inhibition at 10 µM (MAP3K4): 97.2%
- inhibition at 10 µM (RSK2): 96.7%
- inhibition at 10 µM (AurB): 95%
- Competition % (BTK): 97.1%
- inhibition at 10 µM (MAP3K1): 87%
- inhibition at 10 µM (MARK3): 97.2%
- inhibition at 10 µM (PKN2): 93.9%
- inhibition at 10 µM (YES): 91.1%
Compound: CS(=O)(=O)Nc1ccccc1Nc1nc(Nc2cccc(OCCN)c2)ncc1Cl [CZC31326, N-(2-(2-(3-(2-aminoethoxy)phenylamino)-5-chloropyrimidin-4-ylamino)phenyl)methanesulfonamide]
